The values below come from ChEMBL document CHEMBL1201862, “PubChem BioAssay data set” (2004).

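These data come from cells grown in 96-well plates and exposed to compound for 48 hours at five concentrations. GI50 marks 50% less growth.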 Calls of active or inactive are those of the source. Cut-off read from the data, not from the text of the source: active = GI50 up to about 1.1 µM and inactive = higher.

Some test systems named below: COLO 205; HCC 2998; HCT-116; HCT-15; HOP-62; IGROV-1; MOLT-4; Malme-3M; NCI/ADR-RES; OVCAR-3; OVCAR-4; OVCAR-8; RPMI-8226; SF-268; SK-MEL-28; SNB-19; U-251; UO-31.
Test in all cases: DTP human tumour cell line panel, 48 h

Usually GI50 stands for the concentration that inhibits growth by half. As for `COc1ccc(/C=C2\N=C(SC)NC2=O)cc1`, the GI50 with COLO 205 is 98.6 µM (inactive); in the assay on HCC 2998, > 100 µM (inactive); with HCT-116, > 100 µM (inactive); with HCT-15, 89.7 µM; with HOP-62 it was > 100 µM (inactive); in the assay on IGROV-1, 56.5 µM (inactive). Besides, the GI50 was 46.5 µM (inactive) in the assay on MOLT-4; > 100 µM (inactive) with Malme-3M; > 100 µM (inactive) in the assay on NCI/ADR-RES; > 100 µM (inactive) in the assay with OVCAR-3; 71.1 µM (inactive) in the assay with OVCAR-4; > 100 µM (inactive) in the assay on OVCAR-8. For the same compound, the GI50 with RPMI-8226 is 61.8 µM (inactive); in the assay with SF-268 it was 58.6 µM (inactive); in the assay with SK-MEL-28, > 100 µM (inactive); in the assay with SNB-19, 38.5 µM (inactive); with U-251, 90.6 µM (inactive); in the assay with UO-31, 21.2 µM (inactive).

On to `N#CC1=C2Sc3ccccc3N2[C@H](c2ccccc2)[C@H]2COC(=O)[C@@H]12`, for which the GI50 was > 100 µM (inactive) in the assay on COLO 205; > 100 µM (inactive) in the assay on HCC 2998; > 100 µM (inactive) with HCT-116; more than 100 µM in the assay with HCT-15; > 100 µM (inactive) in the assay with HOP-62; 33.5 µM (inactive) in the assay with MOLT-4. Further, the GI50 in the assay on Malme-3M was 16.7 µM (inactive); in the assay with NCI/ADR-RES it was > 100 µM (inactive); with OVCAR-3, > 100 µM (inactive); in the assay on OVCAR-4 it was > 100 µM (inactive); in the assay on OVCAR-8 it was > 100 µM (inactive); in the assay with RPMI-8226, 22.6 µM (inactive). The GI50 is 17.1 µM (inactive) in the assay with SF-268; > 100 µM (inactive) in the assay with SK-MEL-28; > 100 µM (inactive) in the assay on SNB-19; 45.2 µM (inactive) in the assay on U-251; > 100 µM (inactive) with UO-31.

`COc1ccc(-c2csc(Cc3nc4c(Br)cc(Br)cc4c(=O)n3-c3ccc(OC)cc3)n2)cc1`: the GI50 is 34.8 µM (inactive) with COLO 205; > 100 µM (inactive) in the assay on HCC 2998; 30.4 µM (inactive) in the assay on HCT-116; 24 µM in the assay on HCT-15; > 100 µM (inactive) in the assay with HOP-62; 73.3 µM (inactive) in the assay with IGROV-1. For the same compound, the GI50 is 25.5 µM (inactive) in the assay on MOLT-4; 50.9 µM (inactive) in the assay on NCI/ADR-RES; > 100 µM (inactive) in the assay on OVCAR-3; > 100 µM (inactive) in the assay with OVCAR-4; > 100 µM (inactive) in the assay on OVCAR-8; 24.3 µM (inactive) in the assay on SK-MEL-28. The GI50 in the assay with SNB-19 was 18.9 µM (inactive); in the assay with U-251 it was 30.3 µM (inactive); with UO-31 it was 35.2 µM (inactive).

On to `COc1cc2oc(-c3ccc4c(c3)OCO4)c(OC)c(=O)c2c(OC)c1O`, for which the GI50 is > 100 µM (inactive) in the assay on COLO 205; 70.5 µM (inactive) with HCC 2998; 61 µM (inactive) in the assay on HCT-116; 78.7 µM with HCT-15; 57.4 µM (inactive) in the assay on HOP-62; 37.5 µM (inactive) in the assay with IGROV-1. Also, the GI50 with MOLT-4 was 45.7 µM (inactive); in the assay with Malme-3M it was > 100 µM (inactive); with NCI/ADR-RES, 66.8 µM (inactive); in the assay on OVCAR-3, 44.2 µM (inactive); in the assay with OVCAR-4, 59.3 µM (inactive); in the assay with OVCAR-8 it was 32.8 µM (inactive). Moreover, the GI50 in the assay on SF-268 is 27.9 µM (inactive); in the assay with SK-MEL-28, > 100 µM (inactive); with SNB-19, > 100 µM (inactive); in the assay on U-251, 38.4 µM (inactive); with UO-31 it was 53 µM (inactive).

As for `O=C(N[C@@H](c1ccccc1)[C@@H](O)C(=O)OCc1ccc([N+](=O)[O-])cc1)c1ccccc1`, the GI50 was > 100 µM (inactive) in the assay with COLO 205; > 100 µM (inactive) with HCC 2998; > 100 µM (inactive) with HCT-116; more than 100 µM in the assay with HCT-15; > 100 µM (inactive) in the assay with HOP-62; > 100 µM (inactive) in the assay on IGROV-1. Besides, the GI50 in the assay on MOLT-4 is 25.8 µM (inactive); in the assay with Malme-3M, > 100 µM (inactive); in the assay on NCI/ADR-RES, > 100 µM (inactive); in the assay with OVCAR-3, > 100 µM (inactive); in the assay on OVCAR-4 it was > 100 µM (inactive); in the assay on OVCAR-8, > 100 µM (inactive). Besides, the GI50 in the assay with SF-268 is > 100 µM (inactive); in the assay on SNB-19, > 100 µM (inactive); in the assay with U-251, > 100 µM (inactive); in the assay with UO-31, 65.5 µM (inactive).

In the case of `CC(/C=N\NC(=S)N(C)C)=N/NC(=S)N(C)C`, the GI50 in the assay on COLO 205 is 0.497 µM (active); in the assay on HCC 2998 it was 2.49 µM (inactive); in the assay with HCT-116 it was 0.117 µM (active); in the assay on HCT-15, 0.07 µM; in the assay on HOP-62, 0.327 µM (active); in the assay on IGROV-1, 0.575 µM (active). The GI50 in the assay with MOLT-4 is 0.0397 µM (active); in the assay with Malme-3M, 0.995 µM (active); in the assay with NCI/ADR-RES, 0.202 µM (active); in the assay with OVCAR-3 it was 0.317 µM (active); in the assay with OVCAR-4 it was 5.16 µM (inactive); with OVCAR-8, 0.308 µM (active). The concentration for 50% growth inhibition (GI50) is 0.791 µM (active) in the assay with RPMI-8226; 0.251 µM (active) in the assay with SF-268; 4.52 µM (inactive) in the assay with SK-MEL-28; 0.721 µM (active) in the assay on SNB-19; 0.29 µM (active) with U-251; 0.158 µM (active) with UO-31.

In the case of `CC(=O)C(C(=O)c1ccc(C)cc1)[C@@H]1OC(C)(C)O[C@@H]1[C@H]1COC(C)(C)O1` (some centres not stated), the GI50 in the assay with COLO 205 was 18.1 µM (inactive); in the assay with HCC 2998, 25.1 µM (inactive); in the assay on HCT-116, 3.72 µM (inactive); in the assay with HCT-15 it was 8.3 µM; in the assay with HOP-62, 10.5 µM (inactive); with IGROV-1, 12.7 µM (inactive). In addition, the GI50 in the assay on MOLT-4 is 2.61 µM (inactive); with Malme-3M, 15.9 µM (inactive); in the assay with NCI/ADR-RES it was 9.93 µM (inactive); in the assay on OVCAR-3, 7.66 µM (inactive); in the assay with OVCAR-4, 4 µM (inactive); with OVCAR-8, 7.26 µM (inactive). Also, the GI50 in the assay on RPMI-8226 was 2.36 µM (inactive); in the assay on SF-268 it was 9.23 µM (inactive); in the assay on SK-MEL-28, 20.8 µM (inactive); in the assay with SNB-19, 15.7 µM (inactive); with U-251 it was 6.41 µM (inactive); with UO-31, 12.7 µM (inactive).

Take `O=c1[nH]nc(Cc2ccccc2)n1/N=C/c1ccccc1O`: the GI50 is > 100 µM (inactive) with COLO 205; > 100 µM (inactive) in the assay on HCC 2998; > 100 µM (inactive) in the assay with HCT-116; more than 100 µM in the assay with HCT-15; 25.9 µM (inactive) with HOP-62; 83.8 µM (inactive) in the assay on IGROV-1. Further, the GI50 with MOLT-4 was > 100 µM (inactive); in the assay with Malme-3M, > 100 µM (inactive); in the assay on NCI/ADR-RES, > 100 µM (inactive); in the assay on OVCAR-3, > 100 µM (inactive); with OVCAR-4, > 100 µM (inactive); in the assay with OVCAR-8, 40.1 µM (inactive). Also, the GI50 in the assay on RPMI-8226 is > 100 µM (inactive); with SF-268, 50.1 µM (inactive); in the assay on SK-MEL-28 it was > 100 µM (inactive); with SNB-19 it was 79.8 µM (inactive); with U-251 it was 45 µM (inactive); with UO-31, > 100 µM (inactive).
